These results are taken from paper PMC12973313 (Chemical Science, 2026).

Read-outs that look alike come from different tables or passages of the source.

In general, GI50 refers to the concentration giving 50% growth inhibition. What is called efflux ratio is a quotient of directional permeabilities that is used to spot active efflux. As usually defined, the Papp B→A is how fast a substance crosses the layer from the basolateral side. As usually defined, the Papp A→B is the apparent permeability from the apical to the basolateral side of a cell layer. A lower Papp A→B goes with slow passage.

Series [1] can be described thus: Plasma protein binding, equilibrium dialysis. The class given is in vitro ADME, human. Conditions: pH 7.4; human plasma, after 6 hours. Here is the method:
This allows an assessment of the free drug concentration available to distribute into the tissues and interact with the target. The extent to which a compound binds to the constituents of blood plasma can influence drug distribution. […] page 10: In vitro Absorption, Distribution and Metabolism studies General note: These studies were performed by Contract Research Organisation (CRO) Pharmaron. The methodology provided within the ESI is published within the express permission of this organisation. The percentage of a compound recovered during the […] limitations such as unintended potential non-specific binding events to experimental equipment, solubility issues, etc. Protein Binding measurements in human plasma by using equilibrium dialysis: The fraction unbound in human plasma (P-KB, Ltd People's hospital of Shandong) was measured using 96-well Equilibrium Dialysis Plate (HTDialysis LLC, Gales Ferry, CT). Human plasma containing 5 μM test compound was dialysed against dialysis buffer (PBS, pH 7.4) with initial samples taken to allow for assessment of plasma stability and recovery before the plate was incubated for 6 hours at 37°C at 5% CO2. Samples were removed at 6 hours, and all samples were matrix matched and quenched with acetonitrile containing internal standard. Samples were centrifuged at 3,220g for 30 minutes to precipitate protein and enable sampling of supernatant prior to appropriate dilution for liquid chromatography mass-spectrometry (LC-MS/MS) analysis. Samples were analysed using a Shimadzu Nexera LC Binary Gradient LC-30AD (Shimadzu Inc, Kyoto), coupled to a Sciex 6500+ (AB Inc., Illinois). Separation was achieved using a XSelect HSS T3 (2.5μm, 2.1 x 50 mm) (Waters Ltd., Wilmslow) column at a temperature of 40°C and a binary mobile phase gradient at a flow rate of 0.8 mL/min. Initial LC conditions comprised of […] was ramped to 98% B at 0.5 min, held for 0.4 min and then immediately returned to initial conditions. Sample analysis was by electrospray ionisation in combined with multiple reaction monitoring in positive ionisation mode. The ionisation voltage was +5500 V. Kinetic Solubility Determination in PBS pH 7.4: The stock solutions of test and control compounds were prepared in DMSO at 10 mM. From […] These solutions were then shaken at 1100 rpm for 2 hours at 25°C. Following incubation, the samples were filtered using a vacuum manifold. The filtrate was analysed and quantified against a standard of known concentration using liquid chromatography mass- spectrometry (LC-MS/MS). Samples were analysed using a Shimadzu Nexera LC Binary Gradient LC-30AD (Shimadzu Inc, Kyoto), coupled to a Sciex 4500 mass spectrometer (AB Inc., Illinois). Separation of […] Wilmslow) at a temperature of 40°C and a binary mobile phase gradient at a flow rate of 0.8 mL/min. […] This was ramped to 98% solvent B at 0.5 minutes, held for 0.4 minutes and then immediately returned to initial conditions. Sample analysis was by electrospray ionisation combined with multiple reaction monitoring in positive ion mode. The ionspray voltage was […]. 10
On the technique in general: In equilibrium dialysis only unbound substance equilibrates across the membrane.

Series [2] has as its system A2780 CisR cisplatin resistant ovarian cancer cells. Kind of series: GI50 determination, SRB assay. The conditions noted are these: 96 hours; read-out: Mean GI50 (μM) A2780 CisR SRB Assays. The series is classed as cell-based, human. On the procedure:
(§1) GI50 determination assays
(§2) Cell culture: The RPE-1 retinal pigment epithelial, A2780 human ovarian carcinoma, and A2780 CisR cisplatin resistant human ovarian carcinoma cell lines were donated with thanks from the Institute of Cancer Research. The A2780 and A2780 CisR cell lines were cultured in IMDM supplemented with 10 % FBS at 37 °C and 5 % CO2, while the RPE-1 cell line was cultured in a 1:1 mixture of Dulbecco's Modified Eagle Medium and Ham’s F-12 Nutrient Mixture (DMEM/F-12) at 37 °C and 5 % CO2.
(§3) SRB assay: Cells were seeded into 96-well plates at 800 cells per well/cpw (A2780), 1600 cpw (A2780 CisR) or 400 cpw (RPE-1) in cell culture medium and cultured for 48 hours followed by addition of each compound over an eight-point concentration range (each concentration in triplicate). Plates were then cultured for a further 96 hours, after which the cell culture […]
(§4) medium was removed from each well and the cells fixed with addition of 70 µL/well of 10 % (w/v) trichloroacetic acid (TCA) in distilled water followed by incubation for 30 minutes at RT.
(§5) Each plate was then washed with distilled water five times before addition of 70 µL SRB dye (0.4 % (w/v) SRB dye (ThermoFisher Scientific, USA) solubilised in 1 % (v/v) acetic acid/ dH2O) and incubat ed for 30 minutes at RT, followed by washing three times with 1 % (v/v) acetic acid and drying in a 37 °C oven overnight. Once dry, 100 μl of 10 mM Tris -base (ThermoFisher Scientific, USA) was added to each well and plates put on a microplate shaker for 10 minutes at 200 rpm to solubilize the dye. Absorbance values were then read at wavelength 490 nm on a Victor X4 multi-label plate reader (PerkinElmer Life Sciences, USA), data analysed using Microsoft Excel and graphs produced using GraphPad Prism 9.0 and the GI50 value calculated.
(§6) Solutions and compo und preparation: All solvents and starting materials were purchased from known chemical suppliers. Compound stock solutions were prepared in DMSO. Buffer […]
(§7) 500 mM. Buffer B consisted of Na2SO4 (167 mM) and NaOAc (5 mM) with a pH of 5.5 and an ionic strength of 500 mM.
(§8) Vesicle formation: Giant unilamellar Vesicles (GUVS) were prepared through the electro formation method using a Nanion VesiclePrepPro. A solution of 1,2-diphytanoyl-sn-glycero-3-phosphocholine (DPhPC) (10 mM) with 10 % cholesterol in chloroform (20 µL) was deposited onto an ITO coated glass surface (surface coated glass slide) and allowed to evaporate to create a dehydrated thin lipid film. A greased O-ring was then placed around the dehydrated lipid film to create a seal. This volume was then filled with a sucrose solution (275 µL, 200 mM) and then sealed with a second ITO coated glass slide. An AC current (3 V/5 Hz) was then applied. After 2 hrs, the voltage and frequency were reduced in steps over 30 mins to 1.6 V/1 Hz and held for 1 hr before being reduced to 0 V/0 Hz over a further 30 min […]
(§9) Patch clamp measurements: Experiments were performed using a Port-a-Patch system (Nanion Technologies) with borosilicate glass chips that contain an aperture diameter of approximately 1 µm. Buffer A (5 µL) was placed on the underside of the chip over the aperture, The chip was then placed into the port-a-patch system. Buffer A (15 µL) was then added to the top of the chip and 5 µL of the GUV stock solution added. The GUVS were the positioned over the aperture in the chip by application of negative pressure (-30 mbar).
(§10) When a GUV is positioned over the aperture in the chip, it bursts, leaving a planar bilayer as a seal. The negative pressure is then removed, leaving the planar bilayer in place over the aperture. The external buffer A was the exchanged with buffer B, through four simultaneous […]
(§11) buffer exchanges (4 x 15 µL). […]
(§12) = 30 s, to give a final experimental concentration of 0.1 – 1 mM as appropriate. The number of sweeps was set to 1000, the sweep interval to 0.00 s, sample interval to 1.00 ms and the protocol was run for a total of 5 mins. Each experiment was repeated a minimum of three time to ensure reproducibility.
In general terms: Sulforhodamine B stains cellular protein and so reports cell mass.

The subject of series [3] is A2780 ovarian cancer cells. Kind of series: GI50 determination, SRB assay. The class given is cell-based, human. Conditions: 96 hours; read-out: Mean GI50 (μM) A2780 SRB Assays. Here is the method:
as §1, §2, §3, §4, §5, §6, §7, §8, §9, §10, §11, §12

In a further series the test system is RPE-1 cells. Kind of series: GI50 determination, SRB assay. The class given is cell-based, human. Conditions: 96 hours; read-out: Mean GI50 (μM) RPE-1 SRB Assays. On the procedure:
as §1, §2, §3, §4, §5, §6, §7, §8, §9, §10, §11, §12

Series [4] is described as follows: Bi-directional permeability in Caco-2 cell line. The series is classed as in vitro ADME. Conditions: human; for Papp B→A at 2 h, 5 µM: Caco-2, pH 7.4, 5 µM, basolateral to apical; for recovery at 2 h, 5 µM: Caco-2, pH 7.4, after 2 hours; for Papp A→B at 2 h, 5 µM: apical to basolateral. The text has this: Next, to gauge the suitability of SSAs for oral dosing, 9 was subjected to a Caco-2 permeability assay which is used to both predict human intestinal permeability and investigate drug efflux, predicting in vivo compound absorption. This assay allows assessment of a compound's ability to undergo transport from the apical to the basolateral (A–B) compartments of the cell monolayer and vice versa (B–A). […] This is likely to result in poor absorption when dosed orally and therefore further development would be necessary for these agents to become suitable for oral administration. […]
The ionspray voltage was 5500V.
Bi-directional Permeability in Caco-2 Cell Line:
The bi-directional permeability in Caco-2 cell lines was determined by seeding cells onto an HTS Transwell plate. Cells were cultivated for 14-18 days in a cell culture incubator at 37°C, 5% CO2, 95% relative humidity. Cell culture medium was replaced every other day. To assess monolayer integrity the transepithelial electrical resistance (TEER) across the monolayer was measured using Millicell Epithelial volt-ohm meter prior to assay and Lucifer yellow (LY) fluorescence measurement post-assay.
Test compound was prepared in DMSO and diluted in Hank’s Balanced Saline Solution (HBSS, pH 7.4) to a final concentration of 5 µM. Compound was added to the donor compartment of the transwell plate for both apical to basolateral (A>B) and basolateral to apical (B>A) measurements, with blank HBSS being added to the receiver compartment. The transwell plate was then incubated at 37°C, 5% CO2 for 2 hours.
Samples were taken at T=0 and T=2 hours determine the concentration of initial donor sample, and the concentration of receiver and donor wells post-incubation, respectively.
The samples were quenched with solvent containing internal standard (IS). The supernatant was mixed with an appropriate volume of ultra-pure water before LC-MS/MS analysis.
Samples were analysed using a Shimadzu Nexera LC Binary Gradient LC-30AD (Shimadzu Inc, Kyoto), coupled to a Sciex 6500+ (AB Inc., Illinois). Separation of compounds was achieved using a HALO 90Å biphenyl (2.7µm,2.1x50mm) (Advanced Materials Technology, Wilmington) column at a temperature of 40°C. A binary mobile phase gradient at a flow rate of 0.7 mL/min was used. Initial LC conditions comprised of 95% solvent A (0.1% formic acid in water) and 5% solvent B (0.1% formic acid in acetonitrile). This was ramped to 95% solvent B at 0.7 minutes, held for 0.5 minutes and then immediately returned to initial conditions. Sample analysis was by electrospray ionisation combined with multiple reaction monitoring in positive ion mode. The ion spray voltage was 5500V.
In vitro Absorption, Distribution and Metabolism results
Table S1 – Result from solubility assays performed in PBS pH 7.4 for SSA 9.
Table S2 – Summary of results from Caco-2 permeability assays for SSA 9. Papp is given as […]
cm/s. A = apical; B = basolateral. Recovery = % SSA recovered from the assay after 2 hours.
ID Papp (A-B) % Recovery Papp (B-A) % Recovery Efflux Ratio
Table S3 – Summary of results from human plasma protein binding assays for SSA 9. % Bound = % of SSA bound to the plasma proteins after 6 hours incubation at 37 °C. Low % […]
= > 99 %. % Recovery = % SSA recovered from the assay after 6 hours.
ID % Bound % Recovery % Stability
Table S4 – Summary of results from mouse, rat and human microsomal stability assays for SSA 9. The in vitro half-life (t1/2) and microsomal intrinsic clearance (CLint) were calculated from the elimination rate (k, the slope of the natural log of concentration verses time curve), assuming first order kinetics, using the formulae t1/2 = 0.693/-k and CLint = 0.693/t1/2 […]. This compound would be classed as a low clearance compound in all three species. […]

`CC(=O)N1CCN(c2ccc(OCC3COC(Cn4ccnc4)(c4ccc(Cl)cc4Cl)O3)cc2)CC1` (centres unmarked) [Ketoconazole, reference compound]: in series [1], the recovery at 6 h, 5 µM is 96.6%.

Turning to `N.N.[Cl][Pt][Cl]` [Cisplatin, cisplatin, reference compound], the figures for the 50% growth inhibitory concentration (GI50) (in series [2]; in series [3]; with RPE-1 cells) were 10.8 µM, 1.09 µM and 6.25 µM, respectively.

With `C[C@H]1O[C@@H](O[C@H]2[C@@H](O)C[C@H](O[C@H]3[C@@H](O)C[C@H](O[C@H]4CC[C@@]5(C)[C@H](CC[C@@H]6[C@@H]5C[C@@H](O)[C@]5(C)[C@@H](C7=CC(=O)OC7)CC[C@]65O)C4)O[C@@H]3C)O[C@@H]2C)C[C@H](O)[C@@H]1O` [Digoxin], in series [4] (Caco-2, pH 7.4), the efflux ratio at 2 h, 5 µM came out at 45.6 and the Papp A→B at 2 h, 5 µM is 0.42 ×10⁻⁶ cm/s. The compound also yielded a Papp B→A at 2 h, 5 µM in series [4] of 18.7 ×10⁻⁶ cm/s. Further, the recovery at 2 h, 5 µM in series [4] (read-out: Recovery (%) AP-BL) came out at 95.9%. Besides, the recovery at 2 h, 5 µM in series [4] (read-out: Recovery (%) BL-AP) worked out at 99.2%.

With `COCCc1ccc(OCC(O)CNC(C)C)cc1` (centres unmarked) [Metoprolol], the Papp B→A at 2 h, 5 µM in series [4] stood at 26.4 ×10⁻⁶ cm/s. In addition, in series [4] (Caco-2, pH 7.4, Caco-2), the efflux ratio at 2 h, 5 µM stood at 0.93. Also, the results for the recovery at 2 h, 5 µM in series [4] (read-out: Recovery (%) AP-BL) and in series [4] (read-out: Recovery (%) BL-AP) were 108% and 99%, respectively. Moreover, in series [4] (Caco-2, pH 7.4), the Papp A→B at 2 h, 5 µM turned out to be 28.4 ×10⁻⁶ cm/s.

As to `CCCC[N+](CCCC)(CCCC)CCCC` [TBACl, reference compound], the GI50 in series [2] was found to be 219 µM; in series [3], 114 µM; with RPE-1 cells, 532 µM.
